“And” between values parts separate entries of the source, which are not always exact repeats. Equal values may be shown once. “Also recorded” adds a separate entry of the source. Read-outs that look alike come from different tables or passages of the source.
How the values were obtained:
[1] = target: TC-PTP (Homo sapiens (Human), UniProt P17706); assay: PTP activity assay with pNPP substrate, TC-PTP; format: biochemical
Protocol: (§1) The PTP activity was assayed using p-nitrophenyl phosphate (pNPP) as a substrate in DMG buffer at 25° C. […] The reaction rate was measure using a SPECTRAMAX microplate spectrophotometer (Molecular Devices). For the determination of Km, the initial velocity and substrate concentration data were fitted to Michaelis-Menten equation using SIGMAPLOT. […] The assays were performed in 96-well plates. […] The reaction rate was measured using a Spectra Max Plus 384 Microplate Spectrophotometer (Molecular Devices). […] The reactions were incubated at room temperature for 30 min and quenched with 5N NaOH. The absorbance at 405 nm was read on the SpectraMax Plus 384 Microplate Spectrophotometer. For the reversibility test, the enzyme was incubated with the inhibitor at room temperature for 30 min before pNPP was added to initiate the reaction. The reaction was then incubated at room temperature for 30 min and quenched and read. […] Data were fitted using SigmaPlot Enzyme Kinetics Module (Systat Software, Inc.)

[2] = target: PTP1B (Homo sapiens (Human), UniProt P18031); assay: PTP activity assay with pNPP substrate, PTP1B; format: biochemical
Protocol: as §1

[3] = target: SHP2 (Homo sapiens (Human), UniProt Q06124); assay: PTP selectivity panel (pNPP), SHP2; format: biochemical; settings: Table 3
Protocol: (§2) PTP activity was assayed using p-nitrophenyl phosphate (pNPP) as a substrate in DMG buffer (50 mM DMG, pH 7.0, 1 mM EDTA, 150 mM NaCl, 2 mM DTT, 0.1 mg/mL BSA) at 25° C. The assays were performed in 96-well plates. Normally, to determine the IC50 values, the reaction was initiated by the addition of enzyme (final concentration of 10 nM) to a reaction mixture (0.2 mL) containing 2 mM (Km for the substrate) pNPP with various concentrations of inhibitors. The reaction rate was measured using a Spectra Max Plus 384 Microplate Spectrophotometer (Molecular Devices). For compound 10, the final TC-PTP concentration was 0.04 nM. The reactions were incubated at room temperature for 30 min and quenched with 5N NaOH. The absorbance at 405 nm was read on the SpectraMax Plus 384 Microplate Spectrophotometer. For the reversibility test, the enzyme was incubated with the inhibitor at room temperature for 30 min before pNPP was added to initiate the reaction. The reaction was then incubated at room temperature for 30 min and quenched and read. […] To determine the mode of inhibition, the reactions were initiated by the additional enzyme (final concentration for TC-PTP was 0.4 nM and for PTP was 2 nM) to the reaction mixtures (0.2 mL) containing various concentrations of pNPP with different concentrations of the inhibitor. Data were fitted using SigmaPlot Enzyme Kinetics Module (Systat Software, Inc.)

[4] = target: He-PTP (Homo sapiens (Human), UniProt P35236); assay: PTP selectivity panel (pNPP), He-PTP; format: biochemical; settings: Table 3
Protocol: as §2

[5] = target: Lyp (Homo sapiens (Human), UniProt Q9Y2R2); assay: PTP selectivity panel (pNPP), Lyp; format: biochemical; settings: Table 3
Protocol: as §2

[6] = target: FAP1 (Homo sapiens (Human), UniProt Q12923); assay: PTP selectivity panel (pNPP), FAP1; format: biochemical; settings: Table 3
Protocol: as §2

[7] = target: PTP-Meg2 (Homo sapiens (Human), UniProt P43378); assay: PTP selectivity panel (pNPP), PTP-Meg2; format: biochemical; settings: Table 3
Protocol: as §2

[8] = target: PTPα (Homo sapiens (Human), UniProt P18433); assay: PTP selectivity panel (pNPP), PTPα; format: biochemical; settings: Table 3
Protocol: as §2

[9] = target: LAR (Homo sapiens (Human), UniProt P10586); assay: PTP selectivity panel (pNPP), LAR; format: biochemical; settings: Table 3
Protocol: as §2

[10] = target: CD45 (Homo sapiens (Human), UniProt P08575); assay: PTP selectivity panel (pNPP), CD45; format: biochemical; settings: Table 3
Protocol: as §2

[11] = target: Cdc14A (Homo sapiens (Human), UniProt Q9UNH5); assay: PTP selectivity panel (pNPP), Cdc14A; format: biochemical; settings: Table 3
Protocol: as §2

[12] = target: VHR (Homo sapiens (Human), UniProt P51452); assay: PTP selectivity panel (pNPP), VHR; format: biochemical; settings: Table 3
Protocol: as §2

[13] = target: VHX (Homo sapiens (Human), UniProt Q9NRW4); assay: PTP selectivity panel (pNPP), VHX; format: biochemical; settings: Table 3
Protocol: as §2

[14] = target: LMWPTP (Homo sapiens (Human), UniProt P24666); assay: PTP selectivity panel (pNPP), LMWPTP; format: biochemical; settings: Table 3
Protocol: as §2

[15] = system: EGFR phosphorylation in PTP1B−/− mouse embryo fibroblast cells; assay: Effect of TC-PTP inhibitor on EGFR phosphorylation (anti-pTyr immunoblot); format: cell-based; settings: for increase in EGFR phosphorylation compared to DMSO: EGF 2 ng/ml 10 min
Protocol: To determine the cellular efficacy of 10, its effect on tyrosine phosphorylation of EGFR, a known substrate of TC-PTP (Tiganis et al., 1998; Klingler-Hoffmann et al., 2001; Mattila et al., 2005) was assessed using an antibody against pTyr. The cells were incubated with 10 for 2 hr and subsequently treated either with or without EGF (2 ng/ml) for 10 min.
PTP1B^−/− cells were treated with TC-PTP inhibitor at indicated concentration for 2 h before EGF treatment. After EGF treatment (2 ng/ml) for 10 min, cells were lysed in 10 mM HEPES, pH 7.4, 150 mM NaCl, 10% Glycerol, 10 mM sodium phosphate, 10 mM sodium fluoride, 1 mM sodium pervanadate, 1 mM benzamidine, 1% Triton X-100, 10 μg/ml leupeptin, and 5 μg/ml aprotinin. Cell lysates were cleared by centrifugation at 15,000 rpm for 10 min. The lysate protein concentration was estimated using the BCA protein assay kit (PIERCE). To detect EGFR phosphorylation levels, 10 μg of anti-EGFR antibody (CELL SIGNALING, #2232) was added to 1 mg of cell lysate and incubated at 4° C. for 2 h. […] of protein A/G-agarose beads were then added and incubated for another 2 h. After extensive washing, the protein complex was boiled with sample buffer, separated by SDS-PAGE, transferred electrophoretically to PVDF membrane, and immunoblotted with anti-pTyr antibodies (MILLIPORE, #05-1050) followed by incubation with horseradish peroxidase-conjugated secondary antibodies. The blots were developed by the enhanced chemiluminescence technique (ECL kit, AMERSHAM BIOSCIENCES).
PTP1B^−/− mouse embryo fibroblast cells were treated with TC-PTP inhibitor at the indicated concentration for 2 h prior to EGF treatment. After EGF treatment (2 ng/mL) for 10 min, cells were lysed in 10 mM HNEPES, pH 7.4, […], 10% Glycerol, 10 mM sodium phosphate, 10 mM sodium fluoride, 1 mM sodium pervanadate, 1 mM benzamidine, 1% Triton X-100, 10 μg/mL leupeptin, and 5 μg/mL aprotinin. Cell lysates were cleared by centrifugation at 15 000 rpm for 10 min. The lysate protein concentration was estimated using the BAC protein assay kit (Pierce). To detect EGFR phosphorylation levels, 10 μg of anti-EGFR antibody (Cell Signaling, #2232) were added to 1 mg of cell lysate and incubated at 4° C. for 2 h. 20 μL of protein A/G-agarose beads were then added and incubated for another 2 hr. After extensive washing, the protein complex was boiled with sample buffer, separated by SDS-PAGE, transferred electrophoretically to a PVDF membrane, and immunoblotted with anti-pTyr antibodies (Millipore, #5-1050) followed by incubation with horseradish peroxidase conjugalated secondary antibodies. The blots were developed by enhanced chemiluminescence technique (ECL kit, Amersham Biosciences).
The cellular efficacy of compound 10 was assessed by examining its effect on tyrosine phosphorylation of EGFR, a known substrate of TC-PTP. Referring now to FIG. 2 B. PTP1B^−/− mouse embryo filbroblast cells were incubated with compound 10 at various concentrations for 2 h and subsequently treated either with or without EGF (2 ng/mL) for 10 min Inhibition of TC-PTP is expected to enhance endrogenous levels of phosphorylated EGFR. […] Remarkably, the phosphorylated form of EGFR is increased nearly 2-fold even at an inhibitor concentration of 5 nM (1.2×Ki).

[16] = system: Src phosphorylation in PTP1B−/− mouse embryo fibroblast cells; assay: Effect on Src phosphorylation (pSrc416, pSrc527 immunoblot); format: cell-based; settings: 2 h treatment
Protocol: To study the effect of compound 10 on Src phosphorylation, PTP1B^−/− mouse embryo fibroblast cells were grown to 80% confluence before being treated with TC-PTP inhibitor 10 for 2 h. Cells were lysed, and the lysates were cleared by centrifugation at 15 000 rpm for 10 min. 30 μg of total proteins were boiled with sample buffer, separated by SDS-PAGE, transferred electrophoretically to a PVDF membrane, and immunoblotted with anti-pSrc416, anti-pSrc527 antibodies (Invitrogen 44-660G and 44-662G) and antic-Src antibody (Cell Singling Technology #2108) followed by incubation with horseradish peroxidase conjugated secondary antibodies. The blots were developed by the enhanced chemiluminesence technique (ECL kit, Amersham Biosciences).
To further investigate the specificity of compound 10 inside the cells, the ability of compound 10 to effect Src kinase phosphorylation within the same cells was measured. Src activity is regulated by phosphorylation at two distinct tyrosine residues. Autophosphorylation of Tyr416 in the kinase domain activates Src, while phosphorylation of Tyr527 in the C-terminal tail by the C-terminal Src kinase (Csk) blocks Src activity. Previous studies have shown that PTP1B can remove the inhibitory phosphate from pSrc527, while TC-PTP is capable of dephosphorylating pSrc416 (van Vilet et al., 2005; Bjorge, et al., 2000).

[17] = system: CD4 T-cells recovered from patients with type 1 diabetes; assay: pSTAT5 response to IL-2 in CD4 T-cells from type 1 diabetes patients; format: cell-based, human; settings: cells with elevated TC-PTP pre-treated with compound
Protocol: An increase in expression of TC-PTP type 1 diabetic subject correlates with a decrease in STAT5 activation (Long et al., 2010). The protein expression levels of STAT5, JAK1, JAK3, and the negative regulator, TC-PTP, and CD4 T-cells of control and type 1 diabetic subjects were measured. […] No differences were found in STAT5, JAK3, or JAK1 protein expression levels between cells from the control group and the group diagnosed with type 1 diabetes. In contrast, TC-PTP expression was uniform in cells recovered from the control group but was increased overall in cells collected from patients with type 1 diabetes. […] This increased expression of TC-PTP correlated with decreased levels of pSTAT5 levels measured after exposure to IL-2.

Sequence of TC-PTP (P17706 whole entry): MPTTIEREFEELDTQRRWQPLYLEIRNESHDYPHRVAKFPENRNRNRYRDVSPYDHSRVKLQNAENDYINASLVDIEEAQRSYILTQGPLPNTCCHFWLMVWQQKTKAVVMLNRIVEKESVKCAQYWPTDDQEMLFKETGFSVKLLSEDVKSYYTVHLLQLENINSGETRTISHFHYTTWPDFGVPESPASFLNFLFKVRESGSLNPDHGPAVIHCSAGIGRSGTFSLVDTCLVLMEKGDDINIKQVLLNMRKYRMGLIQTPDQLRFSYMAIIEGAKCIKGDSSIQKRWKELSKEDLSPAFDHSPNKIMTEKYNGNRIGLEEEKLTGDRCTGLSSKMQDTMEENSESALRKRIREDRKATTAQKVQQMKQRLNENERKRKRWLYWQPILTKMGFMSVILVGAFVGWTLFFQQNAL
Sequence of PTP1B (P18031 whole entry, species assumed): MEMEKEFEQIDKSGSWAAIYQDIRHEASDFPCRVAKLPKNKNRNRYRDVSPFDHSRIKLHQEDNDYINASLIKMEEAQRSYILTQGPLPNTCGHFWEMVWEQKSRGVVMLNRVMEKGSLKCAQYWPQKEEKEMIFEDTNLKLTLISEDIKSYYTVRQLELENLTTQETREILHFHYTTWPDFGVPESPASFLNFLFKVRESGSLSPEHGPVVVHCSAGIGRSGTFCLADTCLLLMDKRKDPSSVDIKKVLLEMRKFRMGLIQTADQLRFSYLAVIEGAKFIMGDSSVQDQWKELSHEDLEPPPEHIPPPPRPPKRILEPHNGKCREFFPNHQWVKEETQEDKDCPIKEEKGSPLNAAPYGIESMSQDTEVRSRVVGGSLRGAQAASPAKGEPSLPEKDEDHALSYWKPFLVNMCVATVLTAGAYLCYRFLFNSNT
Sequence of LAR (P10586 whole entry, looked up, species assumed): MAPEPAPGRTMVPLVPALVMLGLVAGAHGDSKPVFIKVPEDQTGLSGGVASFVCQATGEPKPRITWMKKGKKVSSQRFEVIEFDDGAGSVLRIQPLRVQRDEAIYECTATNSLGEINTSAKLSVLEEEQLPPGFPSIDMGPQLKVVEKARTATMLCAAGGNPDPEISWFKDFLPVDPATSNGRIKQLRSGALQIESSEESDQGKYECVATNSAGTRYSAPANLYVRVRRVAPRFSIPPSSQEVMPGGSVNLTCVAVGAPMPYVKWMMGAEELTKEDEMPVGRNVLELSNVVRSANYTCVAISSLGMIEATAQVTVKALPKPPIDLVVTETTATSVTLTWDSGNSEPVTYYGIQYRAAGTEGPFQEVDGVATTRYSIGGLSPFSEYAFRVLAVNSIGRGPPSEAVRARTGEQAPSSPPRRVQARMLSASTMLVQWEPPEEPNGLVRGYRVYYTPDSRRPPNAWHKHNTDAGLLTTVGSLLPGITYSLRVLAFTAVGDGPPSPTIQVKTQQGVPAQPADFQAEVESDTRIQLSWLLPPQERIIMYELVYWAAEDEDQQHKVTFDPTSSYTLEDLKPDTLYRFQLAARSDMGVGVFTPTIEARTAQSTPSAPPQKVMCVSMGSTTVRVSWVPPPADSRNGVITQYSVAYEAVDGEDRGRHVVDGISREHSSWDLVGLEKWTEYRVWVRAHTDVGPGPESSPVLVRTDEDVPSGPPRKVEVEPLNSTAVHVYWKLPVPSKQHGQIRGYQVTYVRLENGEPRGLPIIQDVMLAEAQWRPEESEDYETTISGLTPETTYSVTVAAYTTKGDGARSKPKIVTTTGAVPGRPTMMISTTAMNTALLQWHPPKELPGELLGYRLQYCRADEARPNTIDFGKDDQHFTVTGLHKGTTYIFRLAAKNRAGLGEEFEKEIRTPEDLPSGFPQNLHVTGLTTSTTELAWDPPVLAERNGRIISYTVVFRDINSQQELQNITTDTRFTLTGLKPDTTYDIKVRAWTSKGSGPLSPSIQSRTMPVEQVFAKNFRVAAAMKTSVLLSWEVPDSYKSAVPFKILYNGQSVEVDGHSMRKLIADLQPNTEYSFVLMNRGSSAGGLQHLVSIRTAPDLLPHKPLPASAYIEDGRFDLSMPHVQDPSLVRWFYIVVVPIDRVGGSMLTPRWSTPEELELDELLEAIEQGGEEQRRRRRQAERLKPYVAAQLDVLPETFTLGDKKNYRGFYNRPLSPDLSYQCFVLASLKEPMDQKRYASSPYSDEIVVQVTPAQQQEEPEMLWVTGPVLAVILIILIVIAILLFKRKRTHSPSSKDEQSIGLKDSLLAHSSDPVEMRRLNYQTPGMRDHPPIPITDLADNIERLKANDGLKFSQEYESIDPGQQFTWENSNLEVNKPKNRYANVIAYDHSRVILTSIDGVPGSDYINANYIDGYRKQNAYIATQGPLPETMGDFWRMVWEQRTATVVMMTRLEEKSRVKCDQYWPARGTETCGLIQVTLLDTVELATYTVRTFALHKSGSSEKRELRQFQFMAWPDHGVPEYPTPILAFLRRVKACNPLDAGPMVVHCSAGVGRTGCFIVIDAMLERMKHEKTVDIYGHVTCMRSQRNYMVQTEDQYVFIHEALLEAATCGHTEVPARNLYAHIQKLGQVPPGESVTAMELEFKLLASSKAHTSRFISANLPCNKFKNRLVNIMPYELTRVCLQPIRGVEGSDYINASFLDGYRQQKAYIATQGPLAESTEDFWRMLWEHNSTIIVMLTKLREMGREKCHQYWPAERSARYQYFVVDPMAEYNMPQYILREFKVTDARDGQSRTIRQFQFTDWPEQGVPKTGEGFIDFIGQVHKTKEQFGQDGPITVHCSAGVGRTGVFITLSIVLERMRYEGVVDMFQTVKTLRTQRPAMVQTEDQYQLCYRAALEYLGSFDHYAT
Sequence of CD45 (P08575 26-1306, species assumed): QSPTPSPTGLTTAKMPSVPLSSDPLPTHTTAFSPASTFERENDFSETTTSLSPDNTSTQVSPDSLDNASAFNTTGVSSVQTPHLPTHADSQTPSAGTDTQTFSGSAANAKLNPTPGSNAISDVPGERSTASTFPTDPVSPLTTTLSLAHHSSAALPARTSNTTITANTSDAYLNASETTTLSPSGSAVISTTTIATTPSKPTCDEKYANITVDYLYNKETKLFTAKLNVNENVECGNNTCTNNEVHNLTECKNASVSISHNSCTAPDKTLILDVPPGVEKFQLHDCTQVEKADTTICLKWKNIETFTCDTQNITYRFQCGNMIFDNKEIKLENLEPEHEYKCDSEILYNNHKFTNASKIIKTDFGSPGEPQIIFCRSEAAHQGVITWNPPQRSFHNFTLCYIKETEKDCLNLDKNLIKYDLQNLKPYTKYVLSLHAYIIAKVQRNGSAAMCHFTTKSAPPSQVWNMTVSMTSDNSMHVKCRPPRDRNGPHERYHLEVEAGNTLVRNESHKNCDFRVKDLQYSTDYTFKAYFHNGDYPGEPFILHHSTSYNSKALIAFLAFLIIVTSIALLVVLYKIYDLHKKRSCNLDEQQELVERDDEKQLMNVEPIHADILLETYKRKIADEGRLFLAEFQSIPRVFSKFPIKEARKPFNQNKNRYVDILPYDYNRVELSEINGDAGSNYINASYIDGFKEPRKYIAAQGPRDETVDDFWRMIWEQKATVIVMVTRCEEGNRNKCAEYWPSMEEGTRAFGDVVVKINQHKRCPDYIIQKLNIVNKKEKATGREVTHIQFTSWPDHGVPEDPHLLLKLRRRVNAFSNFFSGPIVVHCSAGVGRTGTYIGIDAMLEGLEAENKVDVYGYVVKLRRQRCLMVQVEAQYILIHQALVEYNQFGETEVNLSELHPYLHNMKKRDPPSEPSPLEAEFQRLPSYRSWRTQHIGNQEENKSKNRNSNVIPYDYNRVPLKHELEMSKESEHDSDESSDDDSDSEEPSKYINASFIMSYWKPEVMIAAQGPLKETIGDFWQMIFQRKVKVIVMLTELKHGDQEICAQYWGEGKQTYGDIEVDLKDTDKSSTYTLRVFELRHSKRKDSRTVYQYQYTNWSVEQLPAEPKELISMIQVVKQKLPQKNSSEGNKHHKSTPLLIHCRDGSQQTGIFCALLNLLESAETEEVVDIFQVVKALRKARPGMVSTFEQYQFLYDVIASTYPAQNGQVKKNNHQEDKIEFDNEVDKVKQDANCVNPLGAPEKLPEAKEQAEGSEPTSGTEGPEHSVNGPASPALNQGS
Sequence of Cdc14A (Q9UNH5 whole entry, species assumed): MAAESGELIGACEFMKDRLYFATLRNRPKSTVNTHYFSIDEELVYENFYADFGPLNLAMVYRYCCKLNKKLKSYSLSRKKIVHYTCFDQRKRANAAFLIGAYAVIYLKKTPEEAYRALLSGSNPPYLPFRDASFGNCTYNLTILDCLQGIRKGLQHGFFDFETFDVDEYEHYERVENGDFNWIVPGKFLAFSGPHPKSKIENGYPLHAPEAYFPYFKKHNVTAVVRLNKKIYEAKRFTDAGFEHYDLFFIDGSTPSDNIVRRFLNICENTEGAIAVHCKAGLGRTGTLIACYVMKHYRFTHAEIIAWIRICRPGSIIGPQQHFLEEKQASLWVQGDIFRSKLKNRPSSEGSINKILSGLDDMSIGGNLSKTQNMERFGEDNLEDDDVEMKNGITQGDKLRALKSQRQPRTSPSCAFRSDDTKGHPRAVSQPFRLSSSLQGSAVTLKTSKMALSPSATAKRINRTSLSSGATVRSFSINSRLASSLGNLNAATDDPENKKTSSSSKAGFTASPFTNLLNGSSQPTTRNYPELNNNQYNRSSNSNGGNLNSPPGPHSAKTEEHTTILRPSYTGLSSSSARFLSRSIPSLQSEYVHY
Sequence of He-PTP (P35236 whole entry, species assumed): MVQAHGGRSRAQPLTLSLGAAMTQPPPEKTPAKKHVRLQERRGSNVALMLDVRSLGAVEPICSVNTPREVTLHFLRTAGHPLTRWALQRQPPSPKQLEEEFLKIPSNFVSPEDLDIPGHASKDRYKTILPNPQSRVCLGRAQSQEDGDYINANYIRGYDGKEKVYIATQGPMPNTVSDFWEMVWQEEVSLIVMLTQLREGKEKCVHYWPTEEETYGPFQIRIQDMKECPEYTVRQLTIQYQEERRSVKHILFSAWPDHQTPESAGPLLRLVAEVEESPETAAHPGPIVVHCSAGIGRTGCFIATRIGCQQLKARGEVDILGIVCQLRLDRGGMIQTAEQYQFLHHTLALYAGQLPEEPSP

`CCc1ccc(C(=O)NCCCCC(NC(=O)C(Cc2ccc(C(F)(F)P(=O)(O)O)cc2)NC(=O)C(Cc2ccccc2)NC(=O)COC2CC(C)CCC2C(C)C)C(N)=O)cc1` (stereo not drawn) [Compound 10] was tested, and the IC50 ([1]; IC50 with TC-PTP preincubation, enzyme preincubated with inhibitor 30 min, 0.04 nM TC-PTP) was 8.7 ± 1.4 nM, the IC50 ([1]; IC50 without TC-PTP preincubation, no preincubation, 0.04 nM TC-PTP) was 9.2 ± 1.4 nM and the “selectivity for TC-PTP over PTP1B” value ([1]; TC-PTP versus PTP1B) was 8 fold and 5.6 fold. The Ki ([1]; Table 3, Example 13, read-out: Ki (TC-PTP)) was 4.3 ± 0.2 nM, the “mode of inhibition of TC-PTP” value ([1]; kinetic analysis) was “reversible TC-PTP inhibitor; also recorded: reversible and competitive inhibitor” and the Ki ([1]; tight binding inhibition equation, Table 1, read-out: Ki for TC-PTP) was 4.1 ± 0.2 nM. For the same compound, the “selectivity versus a panel of PTPs” value ([1]; versus SHP2, Lyp, HePTP, PTP-Meg2, FAP1, CD45, LAR, PTPa, VHR, VHX, CDC14A, low molecular weight PTP) was “more than 200 fold”, the Ki ([2]; Table 3, Example 13, read-out: Ki (PTP1B)) was 34 ± 2.8 nM and the “mode of inhibition of PTP1B” value ([2]; kinetic analysis) was “reversible and competitive inhibitor”. The Ki ([2]; tight binding inhibition equation, Table 1, read-out: Ki for PTP1B) was 23.1 ± 0.7 nM, the Ki [3] was over 1000 nM and the Ki [4] was over 1000 nM. It also gave a Ki [5] of over 1000 nM, a Ki [6] of over 1000 nM and a Ki [7] of over 1000 nM. For the same compound, the Ki [8] was over 1000 nM, the Ki [9] was over 1000 nM and the Ki [10] was over 1000 nM. For the same compound, the Ki [11] was over 1000 nM, the Ki [12] was over 1000 nM and the Ki [13] was over 1000 nM. For the same compound, the Ki [14] was over 1000 nM, the “effect on EGFR phosphorylation, dose dependence” value ([15]; 0-50 nM, 2 h) was “enhanced EGFR phosphorylaltion in a dose-dependent fashion; also recorded: augmented EGFR phosphorylation in a dose dependent manner” and the “increase in EGFR phosphorylation compared to DMSO” value (shortened to “increase in EGFR phosphorylation”) ([15]; 5 nM, 2 h) was ~2 fold and 1.9 fold. The “increase in EGFR phosphorylation” value ([15]; 10 nM, 2 h) was 3.4 fold, the “increase in EGFR phosphorylation” value ([15]; 20 nM, 2 h) was 3.9 fold and the “increase in EGFR phosphorylation” value ([15]; 50 nM, 2 h) was 5.0 fold. The pSrc416 phosphorylation [16] was “dose-dependent increase”, the pSrc527 phosphorylation [16] was “no significant change” and the “rescue of decreased response to IL-2 (pSTAT5)” value [17] was “rescued in a concentration dependent manner”.

For `CCc1ccc(C(=O)NCCCCC(NC(=O)C(Cc2ccccc2)NC(=O)C(Cc2ccccc2)NC(=O)COC2CC(C)CCC2C(C)C)C(N)=O)cc1` (stereo not drawn) [Compound 11], the “effect on EGFR phosphorylation” value ([15]; 200 nM) was “no effect”.

`O=C(N[C@@H](Cc1ccc(C(F)(F)P(=O)(O)O)cc1)C(=O)O)OCC1c2ccccc2-c2ccccc21` [Fmoc-F2Pmp-OH, reference compound] was tested, and the IC50 ([1]; known competitive ligand, read-out: IC50 for TC-PTP) was 20000 nM and the IC50 ([2]; known competitive ligand) was 20000 nM.

— US9217012B2, “Inhibitors of protein tyrosine phosphatases” (Indiana University Research and Technology Corporation, priority 2009, dated 2015)
